Laboratory results as given in US7161032B2, “Sulfonamide derivatives, insecticides for agricultural and horticultural use, and usage thereof” (Nihon Nohyaku Co., Ltd., priority 2002, dated 2007).

How the values were obtained:
Assay type in all cases: in vivo
[1] = test system: Diamond Back Moth (Plutella xylostella); experiment: Insecticidal effect on diamond back moth (Test Example 1): egg-bearing Chinese cabbage seedling immersed in 50 ppm liquid chemical
Protocol: Adult diamond back moths were released and allowed to oviposit on a Chinese cabbage seedling. Two days after the release, the seedling having the eggs deposited thereon was immersed for about 30 seconds in a liquid chemical prepared by diluting a preparation containing each compound listed in Table 1 or 2 as an active ingredient to adjust the concentration to 50 ppm. After air-dryness, it was allowed to stand in a room thermostated at 25° C. Six days after the immersion, the hatched insects were counted. The mortality was calculated according to the following equation and the insecticidal effect was judged according to the criterion shown below. The test was carried out with triplicate groups of 10 insects. [formula]

[2] = test system: Smaller Tea Tortrix (Adoxophyes sp.); experiment: Insecticidal effect on smaller tea tortrix (Test Example 3): tea leaves immersed in 50 ppm liquid chemical; details: smaller tea tortrix (Adoxophyes sp.) larvae, 8 days after inoculation, 25° C., humidity 70%
Protocol: Tea leaves were immersed for about 30 seconds in a liquid chemical prepared by diluting a preparation containing each compound listed in Table 1 or 2 as an active ingredient to adjust the concentration to 50 ppm. After air-dryness, the tea leaves were placed in a plastic Petri dish with a diameter of 9 cm and inoculated with larvae of smaller tea tortrix, after which the dish was allowed to stand in a room thermostated at 25° C. and having a humidity of 70%. Eight days after the inoculation, the dead and alive were counted and the insecticidal effect was judged according to the criterion shown in Test Example 1. The test was carried out with triplicate groups of 10 insects.

[3] = test system: Common Cutworm (Spodoptera litura); experiment: Insecticidal effect on common cutworm (Test Example 2): cabbage leaf piece immersed in 50 ppm liquid chemical; details: common cutworm (Spodoptera litura) second-instar larvae, 8 days after inoculation, 25° C.
Protocol: A piece of cabbage leaf (cultivar: Shikidori) was immersed for about 30 seconds in a liquid chemical prepared by diluting a preparation containing each compound listed in Table 1 or 2 as an active ingredient to adjust the concentration to 50 ppm. After air-dryness, it was placed in a plastic Petri dish with a diameter of 9 cm and inoculated with second-instar larvae of common cutworm, after which the dish was closed and then allowed to stand in a room thermostated at 25° C. Eight days after the inoculation, the dead and alive were counted. The mortality was calculated according to the following equation and the insecticidal effect was judged according to the criterion shown in Test Example 1. The test was carried out with triplicate groups of 10 insects. [formula]

Row | Compound | Insecticidal effect (mortality grade), Test Example 1 [1] | Insecticidal effect (mortality grade), Test Example 3 [2] | Insecticidal effect (mortality grade), Test Example 2 [3]
1 | Cc1cc(C(F)(C(F)(F)F)C(F)(F)F)ccc1NC(=O)c1cccc(I)c1C(=O)NC(C)CS(=O)(=O)NCC[S+](C)[O-] (stereo not shown) [1-76] | A (Mortality 100%) | A (Mortality 100%) | A (Mortality 100%)
2 | CCN(CC)S(=O)(=O)CC(C)(C)NC(=O)c1ccccc1C(=O)Nc1ccc(C(F)(C(F)(F)F)C(F)(F)F)cc1C [1-208] | A (Mortality 100%) | A (Mortality 100%) | E (Mortality less than 50%)
3 | Cc1cc(C(F)(C(F)(F)F)C(F)(F)F)ccc1NC(=O)c1cccc(Br)c1C(=O)NC(C)CS(=O)(=O)NC(C)C (stereo not shown) [1-216] | A (Mortality 100%) | A (Mortality 100%) | A (Mortality 100%)
4 | Cc1cc(C(F)(C(F)(F)F)C(F)(F)F)ccc1NC(=O)c1cccc(I)c1C(=O)NC(C)(C)CS(=O)(=O)NCCS(C)(=O)=O [1-83] | A (Mortality 100%) | A (Mortality 100%) | A (Mortality 100%)
5 | CSCCNS(=O)(=O)CC(C)NC(=O)c1c(I)cccc1C(=O)Nc1ccc(C(F)(C(F)(F)F)C(F)(F)F)cc1C (stereo not shown) [1-75] | A (Mortality 100%) | A (Mortality 100%) | A (Mortality 100%)
6 | Cc1cc(C(F)(C(F)(F)F)C(F)(F)F)ccc1NC(=O)c1cccc(I)c1C(=O)NC(C)CS(=O)(=O)NCCCl (stereo not shown) [1-71] | A (Mortality 100%) | A (Mortality 100%) | A (Mortality 100%)
7 | CCCCNS(=O)(=O)CC(C)NC(=O)c1c(I)cccc1C(=O)Nc1ccc(C(F)(C(F)(F)F)C(F)(F)F)cc1C (stereo not shown) [1-12] | A (Mortality 100%) | A (Mortality 100%) | A (Mortality 100%)
8 | Cc1cc(C(C(F)(F)F)C(F)(F)F)ccc1NC(=O)c1cccc(I)c1C(=O)NC(C)(C)CS(=O)(=O)N1CCCC1 [1-345] | A (Mortality 100%) | A (Mortality 100%) | A (Mortality 100%)
9 | COc1cccc(CNS(=O)(=O)CC(C)NC(=O)c2c(I)cccc2C(=O)Nc2ccc(C(F)(C(F)(F)F)C(F)(F)F)cc2C)c1 (stereo not shown) [1-29] | A (Mortality 100%) | A (Mortality 100%) | A (Mortality 100%)
10 | Cc1cc(C(F)(C(F)(F)F)C(F)(F)F)ccc1NC(=O)c1cccc(I)c1C(=O)NC(C)CS(=O)(=O)NCCS(C)(=O)=O (stereo not shown) [1-77] | A (Mortality 100%) | A (Mortality 100%) | A (Mortality 100%)
11 | CCN(CC)S(=O)(=O)CC(C)(C)NC(=O)c1c(I)cccc1C(=O)Nc1ccc(OC(F)(F)F)cc1C [1-277] | A (Mortality 100%) | A (Mortality 100%) | A (Mortality 100%)
12 | CCN(CC)S(=O)(=O)CCCC(C)(C)NC(=O)c1c(I)cccc1C(=O)Nc1ccc(C(F)(C(F)(F)F)C(F)(F)F)cc1C [1-201] | A (Mortality 100%) | A (Mortality 100%) | A (Mortality 100%)
13 | CCNS(=O)(=O)CC(C)NC(=O)c1c(I)cccc1C(=O)Nc1ccc(C(F)(C(F)(F)F)C(F)(F)F)cc1C (stereo not shown) [1-142] |  | A (Mortality 100%) | 
